Source: ChEMBL document CHEMBL1201862, “PubChem BioAssay data set” (2004)
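Values below derive from 48-hour exposures of cells grown in 96-well plates, with endpoints linearly interpolated between the two concentrations bracketing the appropriate inhibition level. At the GI50, growth is halved.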 Calls of active or inactive are those of the source. Cut-off read from the data, not from the text of the source: active = GI50 up to about 1.1 µM and inactive = higher.

Columns and labels:
Assay in all cases: inhibition of tumour cell growth, NCI panel, 48 h
[1] = tested on: A498
[2] = tested on: UACC-62
[3] = tested on: A549
[4] = tested on: PC-3
[5] = tested on: OVCAR-3
[6] = tested on: SN12C
[7] = tested on: Hs-578T
[8] = tested on: HCT-15
[9] = tested on: MDA-N
[10] = tested on: SNB-19
[11] = tested on: TK-10
[12] = tested on: MDA-MB-231
[13] = tested on: NCI-H23
[14] = tested on: M14
[15] = tested on: NCI-H460
[16] = tested on: UO-31
[17] = tested on: SW-620
[18] = tested on: RXF 393
[19] = tested on: T47D
[20] = tested on: HCC 2998
[21] = tested on: SF-295
[22] = tested on: U-251
[23] = tested on: 786-0
[24] = tested on: SK-OV-3
[25] = tested on: IGROV-1
[26] = tested on: OVCAR-5
[27] = tested on: UACC-257
[28] = tested on: SK-MEL-5
[29] = tested on: NCI/ADR-RES
[30] = tested on: SK-MEL-28
[31] = tested on: SNB-75
[32] = tested on: DU-145
[33] = tested on: SF-268
[34] = tested on: CAKI-1
[35] = tested on: Malme-3M
[36] = tested on: BT-549
[37] = tested on: KM12
[38] = tested on: K562
[39] = tested on: MCF7
[40] = tested on: HOP-62
[41] = tested on: NCI-H226
[42] = tested on: HT-29
[43] = tested on: SR
[44] = tested on: RPMI-8226
[45] = tested on: OVCAR-8
[46] = tested on: HCT-116
[47] = tested on: ACHN
[48] = tested on: MDA-MB-435
[49] = tested on: MOLT-4
[50] = tested on: NCI-H522
[51] = tested on: SK-MEL-2
[52] = tested on: CCRF-CEM
[53] = tested on: OVCAR-4
[54] = tested on: COLO 205
[55] = tested on: EKVX
[56] = tested on: LOX IMVI
[57] = tested on: HOP-92
[58] = tested on: HL-60
[59] = tested on: SF-539

## S=C(Nc1c2c(nc3ccccc13)CCCC2)Nc1c2c(nc3ccccc13)CCCC2
[1]
  GI50: > 100 µM (inactive)
[2]
  GI50: > 100 µM (inactive)
[3]
  GI50: > 100 µM (inactive)
[4]
  GI50: > 100 µM (inactive)
[5]
  GI50: > 100 µM (inactive)
[6]
  GI50: > 100 µM (inactive)
[7]
  GI50: > 100 µM (inactive)
[8]
  GI50: > 100 µM
[9]
  GI50: > 100 µM (inactive)
[10]
  GI50: > 100 µM (inactive)
[11]
  GI50: > 100 µM (inactive)
[12]
  GI50: > 100 µM (inactive)
[13]
  GI50: > 100 µM (inactive)
[14]
  GI50: > 100 µM (inactive)
[15]
  GI50: > 100 µM (inactive)
[16]
  GI50: > 100 µM (inactive)
[17]
  GI50: > 100 µM (inactive)
[18]
  GI50: > 100 µM (inactive)
[19]
  GI50: > 100 µM (inactive)
[20]
  GI50: > 100 µM (inactive)
[21]
  GI50: > 100 µM (inactive)
[22]
  GI50: > 100 µM (inactive)
[23]
  GI50: > 100 µM (inactive)
[24]
  GI50: > 100 µM (inactive)
[25]
  GI50: > 100 µM (inactive)
[26]
  GI50: > 100 µM (inactive)
[27]
  GI50: > 100 µM (inactive)
[28]
  GI50: > 100 µM (inactive)
[29]
  GI50: > 100 µM (inactive)
[30]
  GI50: > 100 µM (inactive)
[31]
  GI50: > 100 µM (inactive)
[32]
  GI50: > 100 µM (inactive)
[33]
  GI50: > 100 µM (inactive)
[34]
  GI50: > 100 µM (inactive)
[35]
  GI50: > 100 µM (inactive)
[36]
  GI50: > 100 µM (inactive)
[37]
  GI50: > 100 µM (inactive)
[38]
  GI50: > 100 µM (inactive)
[39]
  GI50: > 100 µM (inactive)
[40]
  GI50: > 100 µM (inactive)
[41]
  GI50: > 100 µM (inactive)
[42]
  GI50: > 100 µM (inactive)
[43]
  GI50: > 100 µM (inactive)
[44]
  GI50: > 100 µM (inactive)
[45]
  GI50: > 100 µM (inactive)
[46]
  GI50: > 100 µM (inactive)
[47]
  GI50: > 100 µM (inactive)
[48]
  GI50: > 100 µM (inactive)
[49]
  GI50: > 100 µM (inactive)
[50]
  GI50: > 100 µM (inactive)
[51]
  GI50: > 100 µM (inactive)
[52]
  GI50: > 100 µM (inactive)
[53]
  GI50: > 100 µM (inactive)
[54]
  GI50: > 100 µM (inactive)
[55]
  GI50: > 100 µM (inactive)

## Cc1cc(S(=O)(=O)Nc2nc3ccccc3n2-c2ccccc2)c(S)cc1Cl
[2]
  GI50: > 100 µM (inactive)
[3]
  GI50: > 100 µM (inactive)
[4]
  GI50: > 100 µM (inactive)
[5]
  GI50: > 100 µM (inactive)
[7]
  GI50: > 100 µM (inactive)
[8]
  GI50: > 100 µM
[56]
  GI50: > 100 µM (inactive)
[9]
  GI50: 87.5 µM (inactive)
[10]
  GI50: 82.2 µM (inactive)
[12]
  GI50: > 100 µM (inactive)
[14]
  GI50: > 100 µM (inactive)
[15]
  GI50: 56.5 µM (inactive)
[16]
  GI50: > 100 µM (inactive)
[17]
  GI50: > 100 µM (inactive)
[18]
  GI50: > 100 µM (inactive)
[19]
  GI50: 9.12 µM (inactive)
[20]
  GI50: > 100 µM (inactive)
[21]
  GI50: 44.4 µM (inactive)
[22]
  GI50: > 100 µM (inactive)
[23]
  GI50: > 100 µM (inactive)
[25]
  GI50: > 100 µM (inactive)
[26]
  GI50: > 100 µM (inactive)
[27]
  GI50: > 100 µM (inactive)
[28]
  GI50: 50.6 µM (inactive)
[29]
  GI50: > 100 µM (inactive)
[30]
  GI50: > 100 µM (inactive)
[31]
  GI50: > 100 µM (inactive)
[57]
  GI50: > 100 µM (inactive)
[32]
  GI50: > 100 µM (inactive)
[33]
  GI50: > 100 µM (inactive)
[58]
  GI50: > 100 µM (inactive)
[34]
  GI50: > 100 µM (inactive)
[35]
  GI50: > 100 µM (inactive)
[36]
  GI50: > 100 µM (inactive)
[37]
  GI50: > 100 µM (inactive)
[38]
  GI50: > 100 µM (inactive)
[39]
  GI50: > 100 µM (inactive)
[41]
  GI50: > 100 µM (inactive)
[43]
  GI50: 69.7 µM (inactive)
[44]
  GI50: > 100 µM (inactive)
[45]
  GI50: > 100 µM (inactive)
[46]
  GI50: > 100 µM (inactive)
[47]
  GI50: > 100 µM (inactive)
[48]
  GI50: > 100 µM (inactive)
[59]
  GI50: > 100 µM (inactive)
[49]
  GI50: > 100 µM (inactive)
[50]
  GI50: > 100 µM (inactive)
[51]
  GI50: > 100 µM (inactive)
[52]
  GI50: > 100 µM (inactive)
[53]
  GI50: > 100 µM (inactive)
[54]
  GI50: > 100 µM (inactive)
[55]
  GI50: > 100 µM (inactive)

## COc1cc2c(cc1OCCCCCCCCCCN1C(=O)c3cccc4cccc(c34)C1=O)N=C[C@@H]1CCCN1C2=O
[2]
  GI50: 12.2 µM (inactive)
[3]
  GI50: 12.4 µM (inactive)
[4]
  GI50: 3.13 µM (inactive)
[5]
  GI50: 3.73 µM (inactive)
[6]
  GI50: 4.42 µM (inactive)
[7]
  GI50: 6.89 µM (inactive)
[8]
  GI50: 4.8 µM
[56]
  GI50: 2.14 µM (inactive)
[9]
  GI50: 7.55 µM (inactive)
[10]
  GI50: 13.7 µM (inactive)
[11]
  GI50: 13.5 µM (inactive)
[12]
  GI50: 3.62 µM (inactive)
[13]
  GI50: 6.21 µM (inactive)
[14]
  GI50: 13.7 µM (inactive)
[15]
  GI50: 19.9 µM (inactive)
[16]
  GI50: 7.46 µM (inactive)
[17]
  GI50: 4.34 µM (inactive)
[18]
  GI50: 3.85 µM (inactive)
[19]
  GI50: 4.41 µM (inactive)
[20]
  GI50: 11.1 µM (inactive)
[21]
  GI50: 6.55 µM (inactive)
[22]
  GI50: 3.37 µM (inactive)
[23]
  GI50: 9.06 µM (inactive)
[24]
  GI50: 6.68 µM (inactive)
[25]
  GI50: 1.59 µM (inactive)
[26]
  GI50: 25.8 µM (inactive)
[27]
  GI50: 16.1 µM (inactive)
[28]
  GI50: 10.9 µM (inactive)
[29]
  GI50: 2.64 µM (inactive)
[30]
  GI50: 12.3 µM (inactive)
[31]
  GI50: 4.58 µM (inactive)
[32]
  GI50: 13.2 µM (inactive)
[33]
  GI50: 8.51 µM (inactive)
[58]
  GI50: 4.27 µM (inactive)
[34]
  GI50: 4.43 µM (inactive)
[35]
  GI50: 12 µM (inactive)
[36]
  GI50: 6.25 µM (inactive)
[37]
  GI50: 16.1 µM (inactive)
[38]
  GI50: 5.26 µM (inactive)
[39]
  GI50: 2.01 µM (inactive)
[40]
  GI50: 14.3 µM (inactive)
[41]
  GI50: 1.72 µM (inactive)
[42]
  GI50: 6.76 µM (inactive)
[43]
  GI50: 0.902 µM (active)
[44]
  GI50: 1.82 µM (inactive)
[45]
  GI50: 4.95 µM (inactive)
[46]
  GI50: 5.52 µM (inactive)
[47]
  GI50: 10 µM (inactive)
[48]
  GI50: 4.25 µM (inactive)
[59]
  GI50: 1.55 µM (inactive)
[49]
  GI50: 2.41 µM (inactive)
[50]
  GI50: 6.67 µM (inactive)
[51]
  GI50: 3.74 µM (inactive)
[52]
  GI50: 1.94 µM (inactive)
[53]
  GI50: 1.31 µM (inactive)
[54]
  GI50: 3.52 µM (inactive)
[55]
  GI50: 2.11 µM (inactive)
